Key:
[1] = molecular target: T1, Full-length phosphorylated PDK1 (Homo sapiens, UniProt O15530); assay: Fluorescence polarization PIF-tide binding assay; conditions: PDK1 saturating amounts of compound, FIG. 13C
T1 sequence (O15530 1-556): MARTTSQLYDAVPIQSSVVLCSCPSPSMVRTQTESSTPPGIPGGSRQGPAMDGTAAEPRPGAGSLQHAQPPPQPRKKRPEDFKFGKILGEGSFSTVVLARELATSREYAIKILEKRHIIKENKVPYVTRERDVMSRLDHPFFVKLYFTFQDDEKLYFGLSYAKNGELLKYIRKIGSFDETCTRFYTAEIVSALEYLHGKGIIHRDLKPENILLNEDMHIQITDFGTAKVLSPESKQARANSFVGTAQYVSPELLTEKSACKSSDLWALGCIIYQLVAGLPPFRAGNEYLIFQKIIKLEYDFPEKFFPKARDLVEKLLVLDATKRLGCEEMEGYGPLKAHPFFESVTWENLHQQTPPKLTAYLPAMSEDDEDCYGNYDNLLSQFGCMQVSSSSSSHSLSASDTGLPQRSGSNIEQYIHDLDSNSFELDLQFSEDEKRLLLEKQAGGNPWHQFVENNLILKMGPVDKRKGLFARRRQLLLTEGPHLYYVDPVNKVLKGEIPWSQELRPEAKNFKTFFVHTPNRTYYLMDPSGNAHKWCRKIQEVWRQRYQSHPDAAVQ

U-937 = assay: MTS cell proliferation assay, U-937; assay type: cell-based; conditions: Homo sapiens; U-937, 72 hr
Procedure: (§1) Cell proliferation was measured using the CellTiter 96 Aqueous Non-Radioactive Cell Proliferation Assay (Promega). The CellTiter 96® AQueous Assay is composed of solutions of a tetrazolium compound [3-(4,5-dimethylthiazol-2-yl)-5-(3-carboxymethoxyphenyl)-2-(4-sulfophenyl)-2H-tetrazolium, inner salt; MTS] and an electron coupling reagent (phenazine methosulfate) PMS. MTS is bioreduced by cells into a formazan product that is soluble in tissue culture medium. The absorbance of the formazan product at 490 nm can be measured directly from assay plates without additional processing. The quantity of formazan product as measured by the amount of 490 nm absorbance is directly proportional to the number of living cells in culture. Cells were seeded into 96-well or 384-well clear plates in a volume of 200 μL (96-well) or 50 μL (384-well) at optimized densities ranging from 1,000 to 40,000 cells per well for 96-well plates or 1,200 to 25,000 cells per well for 384-well plates depending on cell-line. After 4-6 hr recovery, serially diluted compounds in DMSO were added to the cells using (0.1% v/v final DMSO concentration). Cells were then grown at 37° C. in a humidified incubator with 5% CO2 for 72 hr. A 20:1 [3-(4,5-dimethylthiazol-2-yl)-5-(3-carboxymethoxyphenyl)-2-(4-sulfophenyl)-2H-tetrazolium](MTS):phenazine methosulfate (PMS) solution in DPBS was made immediately before use, added to each well, and cells were incubated for 1.5 hr at 37° C. The absorbance at 490 nm was then measured using a platereader. Absorbance values were normalized as percent of control (cells incubated in the presence of 0.1% v/v DMSO). Sigmoidal dose-response curves were plotted using log(inhibitor) vs. response—Variable slope (four parameters) model with a top value constrained to 100% (GraphPad Prism version 6.00 for Windows, GraphPad Software, La Jolla California USA). […] Curves for compounds that reached a plateau were matched exactly to the measurement points. […]

U-266 = assay: MTS cell proliferation assay, U-266; assay type: cell-based; conditions: Homo sapiens; U-266, 72 hr
Procedure: as §1

SMILES	PIF-tide binding to PDK1 (fluorescence polarization, words) [1]	EC50 (U-937)	EC50 (U-266)
C[C@H](NC(=O)c1nc(C#N)cnc1NCc1ccc(-c2cnc3[nH]nc(N)c3n2)cc1)c1ccc(F)c(F)c1 [Compound 1, 3-[4-(3-Amino-1H-pyrazolo[3,4-b]pyrazin-5-yl)-benzylamino]-6-cyano-pyrazine-2-carboxylic acid [1-(3,4-difluoro-phenyl)-ethyl]-amide]	significant inhibition of PIF-tide binding	0.123 µM	0.226 µM
CNc1n[nH]c2ncc(-c3ccc(CNc4ncc(C#N)nc4C(=O)N[C@@H](C)c4ccc(F)c(F)c4)cc3)cc12 [Compound 2, 6-Cyano-3-[4-(3-methylamino-1H-pyrazolo[3,4-b]pyridin-5-yl)-benzylamino]-pyrazine-2-carboxylic acid [1-(3,4-difluoro-phenyl)-ethyl]-amide]	significant inhibition of PIF-tide binding	0.074 µM	0.13 µM

From patent publication US20240207258A1, “HETEROCYCLIC PDK1 INHIBITORS FOR USE TO TREAT CANCER” (Viracta Therapeutics, Inc., priority 2015, published 2024)
